Assays:
A549 [1] = assay: Inhibition of tubulin polymerisation in human A549 cells relative to control; format: cell-based; conditions: dose or concentration not given here
[2] = Inhibition of tubulin polymerisation in human A549; format: cell-based
A549 [3] = assay: Induction of cell cycle arrest in human A549 cells assessed as accumulation of cells at G2/M phase at 2 uM by flow cytometric analysis relative to control; format: functional
A549 [4] = assay: Induction of cell cycle arrest in human A549 cells assessed as accumulation of cells at G2/M phase at 1 uM by flow cytometric analysis relative to control; format: functional
A549 [5] = assay: Induction of apoptosis in human A549 cells at 1 uM measured after 48 hrs by Annexin V-FITC analysis; format: functional
A549 [6] = assay: Antiproliferative activity against human A549 cells incubated for 48 hrs by MTT assay; format: functional, cell-based; conditions: A549, 48 h
A549 [7] = assay: Induction of apoptosis in human A549 cells at 2 uM measured after 48 hrs by Annexin V-FITC analysis; format: functional
[8] = Cytotoxicity against human L132 cells by MTT assay; format: toxicity, cell-based
Renal cancer cell line = assay: Cytotoxicity against human renal cancer cell line assessed as reduction in cell viability by MTT assay relative to control; format: functional
[9] = Cytotoxicity against human Colon carcinoma cells assessed as reduction in cell viability by MTT assay relative to control; format: functional
[10] = target: Serine/threonine-protein kinase B-raf (Homo sapiens) (UniProt P15056); assay: Inhibition of wildtype BRAF (unknown origin) using MEK1 as substrate in presence of ATP relative to control; conditions: concentration not given here
Serine/threonine-protein kinase B-raf (Homo sapiens), sequence (P15056 whole entry): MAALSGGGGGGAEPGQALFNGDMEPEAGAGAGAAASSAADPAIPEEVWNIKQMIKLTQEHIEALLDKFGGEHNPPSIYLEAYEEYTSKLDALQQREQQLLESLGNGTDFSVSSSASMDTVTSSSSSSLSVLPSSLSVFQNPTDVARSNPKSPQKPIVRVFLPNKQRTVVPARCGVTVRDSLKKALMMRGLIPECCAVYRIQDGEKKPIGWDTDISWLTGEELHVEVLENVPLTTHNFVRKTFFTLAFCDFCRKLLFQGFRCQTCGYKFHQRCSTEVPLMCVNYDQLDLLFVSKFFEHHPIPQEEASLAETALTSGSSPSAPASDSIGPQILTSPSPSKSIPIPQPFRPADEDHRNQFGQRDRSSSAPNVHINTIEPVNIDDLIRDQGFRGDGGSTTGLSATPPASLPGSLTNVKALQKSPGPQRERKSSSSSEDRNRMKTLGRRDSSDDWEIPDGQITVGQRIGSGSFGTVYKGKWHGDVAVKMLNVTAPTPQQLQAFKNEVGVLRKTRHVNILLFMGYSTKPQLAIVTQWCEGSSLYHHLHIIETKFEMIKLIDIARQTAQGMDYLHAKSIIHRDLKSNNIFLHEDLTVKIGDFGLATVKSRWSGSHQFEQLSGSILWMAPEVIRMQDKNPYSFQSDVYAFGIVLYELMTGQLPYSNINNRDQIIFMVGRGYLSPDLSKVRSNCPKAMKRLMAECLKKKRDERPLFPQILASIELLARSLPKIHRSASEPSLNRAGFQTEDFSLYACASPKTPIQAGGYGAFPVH

CNS carcinoma cell = assay: Cytotoxicity against human CNS carcinoma cells assessed as reduction in cell viability by MTT assay relative to control; format: functional
Ovarian cancer cell line = assay: Cytotoxicity against human ovarian cancer cell line assessed as reduction in cell viability by MTT assay relative to control; format: functional
Prostatic carcinoma cell = assay: Cytotoxicity against human prostatic carcinoma cell assessed as reduction in cell viability by MTT assay relative to control; format: functional
Leukemic tumor cell line = assay: Cytotoxicity against human leukemic tumor cell line assessed as reduction in cell viability by MTT assay relative to control; format: functional
[11] = system: Non-small cell lung cancer cell line; assay: Cytotoxicity against human non-small cell lung cancer cell line assessed as reduction in cell viability by MTT assay relative to control; format: functional
A-375 = assay: Cytotoxicity against human A-375 cells by MTT assay; format: functional, cell-based
[12] = target: Serine/threonine-protein kinase B-raf (Homo sapiens, UniProt P15056, V600E); assay: Inhibition of human BRAF V600E mutant using MEK1 as substrate in presence of ATP
Serine/threonine-protein kinase B-raf, sequence (P15056 2-766 V600E limits assumed): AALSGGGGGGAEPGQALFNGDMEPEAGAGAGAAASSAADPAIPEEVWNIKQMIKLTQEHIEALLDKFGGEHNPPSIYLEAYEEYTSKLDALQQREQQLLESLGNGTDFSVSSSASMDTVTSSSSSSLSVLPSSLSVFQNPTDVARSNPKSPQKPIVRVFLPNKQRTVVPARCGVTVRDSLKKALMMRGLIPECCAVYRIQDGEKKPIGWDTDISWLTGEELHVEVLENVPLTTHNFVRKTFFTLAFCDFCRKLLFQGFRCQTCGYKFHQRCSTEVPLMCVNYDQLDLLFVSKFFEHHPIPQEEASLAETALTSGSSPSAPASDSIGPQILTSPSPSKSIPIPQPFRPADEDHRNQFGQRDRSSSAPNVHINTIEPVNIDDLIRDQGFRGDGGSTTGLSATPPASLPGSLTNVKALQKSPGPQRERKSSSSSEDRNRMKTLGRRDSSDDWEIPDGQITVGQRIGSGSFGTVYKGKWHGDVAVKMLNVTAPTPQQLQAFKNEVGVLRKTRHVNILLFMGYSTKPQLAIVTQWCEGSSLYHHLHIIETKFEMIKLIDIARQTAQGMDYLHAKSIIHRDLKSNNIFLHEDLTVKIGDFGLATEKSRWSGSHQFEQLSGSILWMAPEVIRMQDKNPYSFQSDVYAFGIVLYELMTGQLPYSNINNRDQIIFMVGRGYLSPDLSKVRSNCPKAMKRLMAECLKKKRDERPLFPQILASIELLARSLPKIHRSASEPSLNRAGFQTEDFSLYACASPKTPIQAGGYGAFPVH

Breast carcinoma cell = assay: Cytotoxicity against human breast cancer cell line assessed as reduction in cell viability by MTT assay relative to control; format: functional
Melanoma tumor cell line = assay: Cytotoxicity against human melanoma tumor cell line assessed as reduction in cell viability by MTT assay relative to control; format: functional
[13] = system: Serine/threonine-protein kinase B-raf (Homo sapiens), P15056 [V600E]; assay: Inhibition of human BRAF V600E mutant using MEK1 as substrate in presence of ATP relative to control; conditions: concentration not given here
Serine/threonine-protein kinase B-raf (Homo sapiens), P15056 [V600E], sequence (P15056 whole entry V600E): as the sequence (P15056 whole entry) above, with V600E counted along it

A549 [14] = assay: Antiproliferative activity human A549 cells; format: functional, cell-based
MDA-MB-231 [15] = assay: Antiproliferative activity human MDA-MB-231 cells; format: functional, cell-based
MCF7 = assay: Antiproliferative activity human MCF7 cells; format: functional, cell-based
HCT-116 = assay: Anticancer activity against human HCT-116 cells measured after 48 hrs by MTT assay; format: functional, cell-based; conditions: HCT-116, 48 h
MIA PaCa-2 = assay: Antiproliferative activity against human MIAPaCa-2 cells measured after 24 to 48 hrs by SRB staining based assay; format: functional, cell-based
MDA-MB-231 [16] = assay: Antiproliferative activity against human MDA-MB-231 cells measured after 48 hrs by MTT assay; format: functional, cell-based; conditions: MDA-MB-231, 48 h
L02 = assay: Cytotoxicity against human HL7702 cells expressing EGFR assessed as reduction in cell viability incubated for 24 hrs by MTT assay; format: functional, cell-based; conditions: L02, 24 h
HeLa = assay: Cytotoxicity against human HeLa cells expressing EGFR assessed as reduction in cell viability incubated for 24 hrs by MTT assay; format: functional, cell-based
HUVEC = assay: Cytotoxicity against HUVEC expressing EGFR assessed as reduction in cell viability incubated for 24 hrs by MTT assay; format: functional, cell-based; conditions: Homo sapiens
HepG2 = assay: Cytotoxicity against human HepG2 cells expressing EGFR assessed as reduction in cell viability incubated for 24 hrs by MTT assay; format: functional, cell-based; conditions: HepG2, 24 h
MDA-MB-231 [17] = assay: Induction of cell cycle arrest in human MDA-MB-231 cells assessed as accumulation of cells at G0/G1 phase measured at 1 uM incubated for 24 hrs by flow cytometric analysis relative to control; format: functional

COc1ccc(-c2nc3sccn3c2-c2nc3ccc(C(F)(F)F)cc3[nH]2)cc1
inhibition (A549 [1]): 68.1%
IC50 [2]: 1680 nM
Activity (A549 [3]): 56.3%
Activity (A549 [4]): 15.1%
Activity (A549 [5]): 14.94%
IC50 (A549 [6]): 1080 nM
Activity (A549 [7]): 43.62%

O=[N+]([O-])c1cccc(-c2nc3sccn3c2-c2ccnc(NCCCNS(=O)(=O)c3cccc(F)c3)n2)c1
IC50 [8]: 80000 nM
inhibition (INH) (Renal cancer cell line): >70%
inhibition (INH) [9]: >80%
inhibition [10]: 66.3%
inhibition (INH) (CNS carcinoma cell): 70%
inhibition (INH) (Ovarian cancer cell line): >80%
inhibition (INH) (Prostatic carcinoma cell): >90%
inhibition (INH) (Leukemic tumor cell line): >90%
inhibition (INH) [11]: >80%
IC50 (A-375): 2990 nM
IC50 [12]: 21 nM
inhibition (INH) (Breast carcinoma cell): >80%
inhibition (INH) (Melanoma tumor cell line): 100%
inhibition [13]: 99.6%

CCCS(=O)(=O)Nc1ccc(F)c(C(=O)c2c[nH]c3ncc(-c4ccc(Cl)cc4)cc23)c1F [VEMURAFENIB]
IC50 (A-375): 5900 nM

O=C(/C=C\Nc1cnc2ccccc2c1)c1c(-c2ccccc2)nc2sccn12
IC50 (A549 [14]): 400 nM
IC50 (MDA-MB-231 [15]): 4600 nM
IC50 (MCF7): 4600 nM

C/C(=N\N=C1\S/C(=N\Nc2ccc(Br)cc2)C(=O)N1N)c1sc2nc(-c3ccc(C)cc3)cn2c1C
IC50 (HCT-116): 1100 nM

COc1ccc2c(c1OCc1csc3nc(-c4cc(C)c(Br)s4)cn13)C(=O)OC2C1c2c(cc3c(c2OC)OCO3)CCN1C (configuration not stated)
IC50 (MIA PaCa-2): 3600 nM

COc1ccc(C(=O)/C=C/c2cn3c(n2)sc2ccccc23)cc1
IC50 (MDA-MB-231 [16]): 1200 nM

O=C(Cc1csc2nc3ccccc3n12)Nc1cccc2ccccc12
IC50 (L02): > 100000 nM
IC50 (HeLa): 2490 nM
IC50 (HUVEC): > 100000 nM
IC50 (HepG2): > 100000 nM

COc1ccc(-c2nc3sccn3c2/C=N/NC(=O)c2cccc(O)c2)cc1
Activity (MDA-MB-231 [17]): 72.4%

O=[N+]([O-])c1cccc(-c2nc3sccn3c2-c2ccnc(NCCCNS(=O)(=O)c3ccc(F)cc3)n2)c1
IC50 [8]: 76000 nM
inhibition (INH) (Renal cancer cell line): >70%
inhibition (INH) [9]: >80%
inhibition (INH) (CNS carcinoma cell): 70%
inhibition (INH) (Ovarian cancer cell line): >80%
inhibition (INH) (Prostatic carcinoma cell): >90%
inhibition (INH) (Leukemic tumor cell line): >90%
inhibition (INH) [11]: >80%
IC50 (A-375): 7960 nM
IC50 [12]: 35 nM
inhibition (INH) (Breast carcinoma cell): >80%
inhibition (INH) (Melanoma tumor cell line): 100%

COc1ccc2c(c1)sc1nc(/C=C/C(=O)c3ccc(OC)c(O)c3)cn12
IC50 (MDA-MB-231 [16]): 1300 nM

C/C(=N\N=C1\S/C(=N\Nc2ccccc2)C(=O)N1N)c1sc2nc(-c3ccc(C)cc3)cn2c1C
IC50 (HCT-116): 1100 nM

— ChEMBL document CHEMBL5096145, “Evaluation of imidazo[2,1-b]thiazole-based anticancer agents in one decade (2011-2020): Current status and future prospects” (Bioorg Med Chem, 2021)
